Holding throughout (assay): inhibition of tumour cell growth, NCI panel, 48 h
For assay [1], the system named is UACC-257 melanoma.
Assay [2] deals with KM12 colon.
Assay [3] deals with MALME-3M melanoma.
Assay [4] relates to CAKI-1 renal.
Assay [5] has as its system MCF7 breast.
The test system of assay [6] is HT29 colon.
Assay [7] deals with SF-268 CNS.
Assay [8] has as its system NCI/ADR-RES ovarian.
The test system of assay [9] is SK-MEL-28 melanoma.
Assay [10] concerns SNB-75 CNS.

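Grown in 96-well plates, cells were treated for 48 hours with each compound at five concentrations. Insufficient inhibition: endpoint recorded as highest concentration tested. At the TGI there is no net growth.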

With `O=c1c2cc(S(=O)(=O)O)ccc2nc(COc2ccc(Oc3ccc(Cl)cc3Cl)cc2)n1-c1ccc(Cl)cc1Oc1c(Cl)cccc1Cl`, the TGI in assay [1] was 86.6 µM; in [2], greater than 100 µM; in assay [3] it was greater than 100 µM; in assay [4] it was greater than 100 µM; in [5], 45.6 µM; in assay [6], 39.9 µM. Also, the TGI in assay [7] was 35.7 µM; in assay [8] it was 77.4 µM.

Turning to `Cc1ccccc1N=Nc1ccc(N/N=C2/CCCNC2=O)c(C)c1`, the TGI in assay [1], in assay [2], in assay [3], in [4], in assay [5] and in assay [6] was greater than 100 µM in each case. Besides, the TGI in assay [9], in [7] and in [8] was greater than 100 µM throughout.

For the compound `C/C=C(/C)C(=O)O[C@H]1C[C@@H]2[C@@H](O)c3occ(C)c3C[C@]2(C)[C@@H](C)C1`, the TGI in assay [1] stood at 23.2 µM; in [2], 30.2 µM; in assay [3], 29.2 µM; in assay [4], 33.3 µM; in assay [5], 38.9 µM; in assay [6], 31.1 µM. In addition, the results for the TGI in [9], in assay [7] and in assay [8] were 29.9 µM, 31 µM and 28.3 µM, respectively.

`NNc1nncc2n[nH]nc12`: the TGI in assay [1] is greater than 100 µM; in assay [2] it was greater than 100 µM; in assay [10], 85.5 µM; in assay [4], greater than 100 µM; in assay [5], greater than 100 µM; in [6], greater than 100 µM. Further, the TGI in [9], in assay [7] and in [8] was greater than 100 µM each time.

For `CSC1=N/C(=C\c2ccccc2)C(=O)N1CN1CCCCC1`, the TGI in [2] was greater than 100 µM; in [3], greater than 100 µM; in [10], greater than 100 µM; in assay [5], greater than 100 µM; in assay [6], 90.7 µM; in assay [9], greater than 100 µM. Also, the TGI in assay [7] and in assay [8] was greater than 100 µM each time.

Regarding `CCn1c(SCC(=O)NNC(=S)Nc2ccc(C)cc2)nc2ccccc2c1=O`, the TGI in assay [1], in assay [2], in assay [3], in assay [10], in [5] and in [6] was greater than 100 µM throughout. Further, the TGI in assay [9], in [7] and in assay [8] was greater than 100 µM each time.

Turning to `O=C1O/C(=C(/Br)c2ccc(Cl)c(Cl)c2)c2ccccc21`, the TGI in [1], in assay [2], in [10], in assay [4], in assay [5] and in assay [6] was greater than 10 µM each time. Further, the TGI in assay [9], in assay [7] and in assay [8] was greater than 10 µM in each case.

On to `O=C1C(Cl)C(c2cccc(Cl)c2)N1c1ccc(-n2c(=S)[nH]c3ccccc3c2=O)cc1` (configuration not stated), for which the TGI in assay [1] was 98.6 µM; in assay [2], greater than 100 µM; in assay [3] it was greater than 100 µM; in assay [4], greater than 100 µM; in assay [5], 37.8 µM; in assay [6], 43.3 µM. Further, the TGI is 39 µM in assay [7] and 70.8 µM in assay [8].

On to `CC12CCC([C@H](C(O)C3CCCCC3)C1=O)C2(C)C` (some centres not stated), for which the TGI in assay [1], in assay [2], in [10], in assay [4], in assay [5] and in [7] was greater than 100 µM in each case. For the same compound, in assay [8], the TGI is greater than 100 µM.

`COC(=O)C1C(=O)C=CN([C@H](C)c2ccccc2)[C@@H]1Cc1ccc(OC)c(OCc2ccccc2)c1I` (some centres not stated): the TGI is 39.3 µM in [1]; 52 µM in assay [2]; 39.6 µM in assay [3]; greater than 100 µM in [4]; 49.3 µM in assay [5]; 26.7 µM in [6]. For the same compound, the TGI was greater than 100 µM in assay [9], 41.1 µM in [7] and 42.9 µM in assay [8].

As to `NC(=S)Nc1ccc(S(=O)(=O)Nc2ccc(S(N)(=O)=O)cc2)cc1`, the TGI in assay [1], in [2], in assay [3], in assay [4], in [5] and in assay [6] was greater than 100 µM throughout. Also, the TGI in assay [9] and in assay [8] was greater than 100 µM throughout.

As for `O=C1N[C@@H](c2c[nH]c3cc(Br)ccc23)C(=O)N[C@H]1c1c[nH]c2cc(Br)ccc12`, the TGI in assay [1] was greater than 100 µM; in [2], greater than 100 µM; in [3], greater than 100 µM; in assay [10] it was 90.1 µM; in assay [5] it was greater than 100 µM; in assay [6], greater than 100 µM. Further, the TGI in assay [9], in assay [7] and in [8] was greater than 100 µM throughout.

For `O=c1oc2cc(O)ccc2c(O)c1C(c1ccccc1F)c1c(O)c2ccc(O)cc2oc1=O`, the TGI in assay [1], in [2], in assay [10], in [4], in assay [5] and in [6] was greater than 100 µM throughout. In addition, the TGI in assay [9], in assay [7] and in [8] was greater than 100 µM in each case.

Take `COc1ccc(CCN2CCN(CCc3ccc(OC)cc3)CC2)cc1`: the TGI in [1], in assay [2], in assay [3], in assay [4], in assay [5] and in [6] was greater than 100 µM throughout. The TGI in assay [9], in assay [7] and in assay [8] was greater than 100 µM throughout.

Consider `c1ccc2c(c1)nc1n2CNC1`, for which the TGI in [1], in [2], in [10], in assay [4], in assay [5] and in assay [6] was greater than 100 µM throughout. Besides, the TGI in [9], in assay [7] and in assay [8] was greater than 100 µM each time.

On to `CCc1c(C)c(C#N)c(=S)n(C2OC(COC(C)=O)C(OC(C)=O)C(OC(C)=O)C2OC(C)=O)c1C` (configuration not stated), for which the TGI in assay [1], in assay [2], in [3], in [4], in assay [5] and in [6] was greater than 100 µM in each case. Also, the TGI in assay [9], in [7] and in assay [8] was greater than 100 µM throughout.

On to `CC(=O)OC1(C)C=CC(=O)C=C1`, for which the TGI in assay [1] was 34.4 µM; in [2], greater than 100 µM; in assay [10], greater than 100 µM; in assay [4], greater than 100 µM; in assay [5], greater than 100 µM; in assay [6], greater than 100 µM. Further, the TGI in assay [9] was 69.6 µM; in assay [7], greater than 100 µM; in assay [8] it was 26.3 µM.

Take `Cc1[nH]n(C2=NCCN2)c(=O)c1Cc1ccccc1`: the TGI in assay [1], in assay [2], in [3], in assay [4], in assay [5] and in assay [6] was greater than 100 µM throughout. The TGI in assay [7] and in assay [8] was greater than 100 µM each time.

On to `COc1ccc(C2=Nn3c(nnc(Cc4ccc(Cl)cc4)c3=O)SC2)cc1`, for which the TGI in assay [1], in [2], in [3], in [4], in [5] and in assay [6] was greater than 100 µM each time. Moreover, the TGI in [9] was greater than 100 µM; in assay [7], greater than 100 µM; in assay [8], 53.7 µM.

Take `CCOP(=O)(CN1CCNCCNCC1)OCC`: the TGI in assay [1], in [2], in assay [10], in [4], in [5] and in [6] was greater than 100 µM each time. In addition, the TGI in assay [9] and in [8] was greater than 100 µM in each case.

In the case of `N#C/C(N)=C(\C#N)N=CN`, the TGI in assay [1], in [2], in assay [3], in assay [10], in assay [5] and in assay [6] was greater than 100 µM in each case. Also, the TGI in assay [9], in assay [7] and in [8] was greater than 100 µM each time.

Regarding `CC1=CC(=O)N(n2c(Cc3ccccc3)n[nH]c2=O)C1=O`, the TGI in assay [1], in assay [2], in [3], in assay [4], in assay [5] and in assay [6] was greater than 100 µM in each case. The TGI in [7] and in assay [8] was greater than 100 µM each time.

As to `CC(C)Oc1ccc2c(c1)OCC1Cc3ccccc3OC21` (configuration not stated), the TGI in assay [1], in assay [2], in assay [3], in [4], in assay [5] and in [6] was greater than 100 µM in each case. Moreover, the TGI in assay [7] and in [8] was greater than 100 µM in each case.
